US11058654B2, “Compositions and methods for the treatment of hemoglobinopathies and thalassemias” (AXCELLA HEALTH INC., priority 2018, dated 2021)

Assays:
Assay type in all cases: cell-based, human
[1] = test system: ICAM-1; experiment: ICAM-1 cell integrated intensity in HLMVEC treated with TNFa; settings: 0.5 ng/mL TNFα; amino acids at 20×; 24 hours; in words
From the text: (§1) A VEC model was employed to assess the ability of amino acids to influence aspects of vascular dysfunction in SCD. TNFa treatment of healthy donor HLMVEC mimics the SCD disease state and induces expression of adhesion markers ICAM-1 and VCAM-1, and secretion of proinflammatory cytokine IL-6. It is established that levels of ICAM-1, VCAM-1, and IL-6 can contribute to SCD pathology and correlate with the incidence and severity of complications in SCD patients. The VEC model sought to test the ability of amino acids to reduce the TNFa-induced disease phenotype by lowering expression of adhesion markers (ICAM-1 and VCAM-1) and inflammatory cytokines (IL-6) while promoting VEC health and viability.
Primary Human Lung Microvascular Endothelial Cells (HLMVEC; Lonza) were seeded at 6,000 cells per well in Endothelial Cell Growth Basal Medium-2 (Lonza) supplemented with Fetal Bovine Serum (FBS; Lonza), human EGF (Lonza), human VEGF (Lonza), R3-Insulin-like Growth Factor-1 (Lonza), ascorbic acid (Lonza), hydrocortisone (Lonza), human FGF-beta (Lonza), and gentamicin/amphotericin-b (Lonza) in a 96-well plate (Thermo Fisher). […]
(§2) Antibody binding was detected by fluorescence microscopy using a high content imager (Molecular Devices). Images were analyzed using MetaXpress 6 software to determine the integrated intensity per cell for each wavelength corresponding to ICAM-1 or VCAM-1.

[2] = test system: VCAM-1; experiment: VCAM-1 cell integrated intensity in HLMVEC treated with TNFa; settings: 0.5 ng/mL TNFα; amino acids at 20×; 24 hours; in words
From the text: as §1
Primary Human Lung Microvascular Endothelial Cells (HLMVEC; Lonza) were seeded at 6,000 cells per well in Endothelial Cell Growth Basal Medium-2 (Lonza) supplemented with Fetal Bovine Serum (FBS; Lonza), human EGF (Lonza), human VEGF (Lonza), R3-Insulin-like Growth Factor-1 (Lonza), ascorbic acid (Lonza), hydrocortisone (Lonza), human FGF-beta (Lonza), and gentamicin/amphotericin-b (Lonza) in a 96-well plate (Thermo Fisher). The cells were incubated for 45 minutes at room temperature, then incubated overnight at 37° C./5% CO2.
Following overnight incubation, cell were washed once with 150 μL of Dulbecco's phosphate buffered saline (DPBS; Gibco), and then treated with Endothelial Basal Medium MCB-131 (amino acid, glucose, sodium pyruvate, and phenol red free; US Biologicals) containing a defined custom amino acid concentration based on physiological concentrations in blood of patients with SCD (thus recapitulating observed metabolic imbalances such as the depletion of certain essential amino acids including arginine and aspartate and enrichment of certain non-essential amino acids including glutamate and asparagine), dialyzed FBS (Hyclone), human EGF (Lonza), human VEGF (Lonza), R3-Insulin-like Growth Factor-1 (Lonza), ascorbic acid (Lonza), hydrocortisone (Lonza), human FGF-beta (Lonza), and gentamicin/amphotericin-b (Lonza), glucose, 10 mM HEPES, sodium pyruvate, and sodium bicarbonate supplemented with one of the following: • a. PBS (vehicle control), • b. 0.5 ng/mL Tumor Necrosis Factor alpha (TNFα) and PBS, or; • c. 0.5 ng/mL TNFα and amino acid treatments at 20× mean physiological concentrations in plasma based on values published in the Human Metabolome Database (HMDB) in PBS.
After 24 hours of treatment, cells were washed once with 150 μL of DPBS (Gibco), then fixed with 4% paraformaldehyde. […]
as §2

[3] = test system: whole blood of healthy control donors; experiment: Reactive oxygen species (DCF fluorescence, H2O2) in whole blood of healthy controls
Procedure: (§3) Whole blood samples were appropriately diluted in Ca^2+- and Mg^2+-free Dulbecco's phosphate buffered saline (DPBS, Life Technologies) and the concentration of erythrocytes (RBC/ml) was measured on a Cellometer K2 Fluorescent Viability Cell Counter according to the manufacturer's RBC/AOPI protocol (Nexcelom Biosciences).
(§4) Cells were then diluted to 1*10^6 RBC/ml into either prewarmed 37° C. […] 2′-7′-dichlorofluorescin diacetate (DCF, Millipore Sigma), 20 mM in dimethyl sulfoxide (DMSO, Fisher) were added to a working concentration of 100 μM. Cells were incubated with dye for 15 minutes at 37° C., 5% CO2 in a tissue culture incubator, washed once, and resuspended in the 0.9 volumes of the same prewarmed 37° C. buffer with 5 minute spins at 500× g, accel/decal=5 in a swing arm centrifuge (Beckman Coulter). […] Where possible due to solubility constrains, pH-7.4-adjusted stock solutions of amino acids were used. Wells were mixed by pipetting and plates incubated at 37° C., 5% CO2 in a tissue culture incubator for 30 minutes. Optionally, 40 mM H2O2(Millipore Sigma) freshly prepared in the same buffer was added to bring the concentration to 2 mM, wells mixed by pipetting, and plates were incubated an additional 30, 60, 120, or 240 minutes before fluorescence measurement of ROS signal on a Synergy H4 (BioTek) microplate reader with excitation=488 nm and emission=530 nm, and gain either set to autogain, 75, or 100.

[4] = test system: sickle cell disease patient blood; experiment: Reactive oxygen species (DCF fluorescence, H2O2) in sickle cell disease patient blood
Procedure: as §3, §4

In the case of `NCC(=O)O` [Gly, glycine], the “TNF-α induced ICAM-1 expression levels in HLMVEC” value [1] was “reduced levels of ICAM-1 expression to a lesser extent” and the “VCAM-1 expression in HLMVEC” value [2] was “greatly reduced”.

For `N[C@@H](CS)C(=O)O` [cysteine], the “ROS measured in whole blood” value ([3]; healthy control donors, treated with H2O2, dose-responsive) was “reduced ROS” and the “ROS measured in whole blood” value ([4]; treated with H2O2 and untreated in DPBS) was “reduced ROS”.

`N[C@@H](Cc1c[nH]c2ccccc12)C(=O)O` [tryptophan] was tested, and the ROS signal ([3]; healthy donor blood, 10×) was “increased ROS signal” and the ROS signal ([4]; 10×) was “increased ROS signal”.
